Measured values from article PMC11348465, “Pharmacochemical Study of Multitarget Amino Acids’ Hybrids: Design, Synthesis, In vitro, and In silico Studies” (Medicinal Chemistry (Shariqah (United Arab Emirates), 2024).
Blank lines part the entries; values can stand above or below the molecule they belong to.

What was measured:
ovine COX-2 = molecular target: T1, ovine COX-2 (Ovis aries, UniProt P79208); test: Cyclooxygenase-2 inhibition study; format: biochemical; details: for COX-2 inhibition (%): % inhibition at 100 µM; for IC50: read-out: COX-2 inhibition (IC50)
T1 construct: purchased Cayman (USA)
T1 sequence (P79208 17-603): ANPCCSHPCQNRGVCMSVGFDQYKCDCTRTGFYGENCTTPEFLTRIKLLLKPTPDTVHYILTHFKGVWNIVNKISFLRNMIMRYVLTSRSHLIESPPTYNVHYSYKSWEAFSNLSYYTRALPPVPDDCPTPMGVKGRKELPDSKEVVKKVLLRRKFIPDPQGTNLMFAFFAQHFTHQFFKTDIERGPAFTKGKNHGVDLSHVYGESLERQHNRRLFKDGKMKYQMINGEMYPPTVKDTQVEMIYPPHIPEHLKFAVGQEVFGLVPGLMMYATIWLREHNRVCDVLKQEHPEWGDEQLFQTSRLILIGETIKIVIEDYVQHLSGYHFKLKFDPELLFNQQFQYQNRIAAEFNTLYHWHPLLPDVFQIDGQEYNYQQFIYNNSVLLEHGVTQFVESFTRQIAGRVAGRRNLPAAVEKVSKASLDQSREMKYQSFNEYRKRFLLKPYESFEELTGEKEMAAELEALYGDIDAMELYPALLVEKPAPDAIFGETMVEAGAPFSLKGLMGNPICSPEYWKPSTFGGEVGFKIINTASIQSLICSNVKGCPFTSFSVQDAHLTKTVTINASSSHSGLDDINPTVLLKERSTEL
Method: The in vitro study of cyclooxygenase (COX) activity was determined by using arachidonic acid (AA) as the substrate and N,N,N’,N’-tetramethylphenylenediamine (TMPD) as the co-substrate. […] The absorption due to the spontaneous oxidation of TMPD was subtracted from the initial rate of oxidation observed in the presence of AA. […] A blank determination was used first to serve as a negative control. Indomethacin was used as a reference COX-2 inhibitor (positive control).
The role of COX-2 in neurodegenerative diseases has been reported, and COX-2 inhibition is considered of high importance as a therapeutic tool. The designed derivatives were tested for their COX-2 inhibition activity on the ovine COX-2 enzyme. […] Indomethacin was used as a reference compound.

[1] = Inhibition of linoleic acid peroxidation (AAPH-induced)
Method: Our group evaluated the in vitro study as reported previously. Ten 16 mM sodium linoleate solution microliters were added to the UV cuvette containing 93 µL of a 0.05 M phosphate buffer, pH 7.4, and 10 µL of the tested compounds (final concentration 100 µM). The oxidation reaction started at 37 °C under air by adding 50 µL of the free radical initiator AAPH (40 mM). Oxidation was carried out and monitored at 234 nm. DMSO under the same conditions was used as a negative control. Trolox was used as the appropriate standard (positive control). The results are given in Table S1 in the supplementary material.
We used the water-soluble 2, 2’-azobis(2-amidinopropane) hydrochloride (AAPH) to generate in vitro peroxyl radicals through spontaneous thermal decomposition, which resembles cellular lipid peroxidation due to the activity of the undertaken radicals. The anti-lipid peroxidation activities were compared to a well-known antioxidant, i.e., Trolox (Table S1 in the supplementary material). […] In general, the anti-lipid peroxidation ranged from 8-99%. Except for acids 11, 12, 17, 19, 21, 22, 24, 25, and 28, which present high antioxidant activities (on the high % level), the other cinnamic acids present low or medium activity.

[2] = molecular target: T2, soybean lipoxygenase (LOX-1) (Glycine max, UniProt P08170); test: Soybean lipoxygenase inhibition study; format: biochemical; details: for IC50: read-out: LOX inhibition (IC50); for LOX inhibition (%): % inhibition at 100 µM; for inhibition at 100 µM: read-out: LOX inhibition (%)
T2 construct: purchased Sigma Chemical, Co. (St Louis, MO, USA)
T2 sequence (P08170 1-839): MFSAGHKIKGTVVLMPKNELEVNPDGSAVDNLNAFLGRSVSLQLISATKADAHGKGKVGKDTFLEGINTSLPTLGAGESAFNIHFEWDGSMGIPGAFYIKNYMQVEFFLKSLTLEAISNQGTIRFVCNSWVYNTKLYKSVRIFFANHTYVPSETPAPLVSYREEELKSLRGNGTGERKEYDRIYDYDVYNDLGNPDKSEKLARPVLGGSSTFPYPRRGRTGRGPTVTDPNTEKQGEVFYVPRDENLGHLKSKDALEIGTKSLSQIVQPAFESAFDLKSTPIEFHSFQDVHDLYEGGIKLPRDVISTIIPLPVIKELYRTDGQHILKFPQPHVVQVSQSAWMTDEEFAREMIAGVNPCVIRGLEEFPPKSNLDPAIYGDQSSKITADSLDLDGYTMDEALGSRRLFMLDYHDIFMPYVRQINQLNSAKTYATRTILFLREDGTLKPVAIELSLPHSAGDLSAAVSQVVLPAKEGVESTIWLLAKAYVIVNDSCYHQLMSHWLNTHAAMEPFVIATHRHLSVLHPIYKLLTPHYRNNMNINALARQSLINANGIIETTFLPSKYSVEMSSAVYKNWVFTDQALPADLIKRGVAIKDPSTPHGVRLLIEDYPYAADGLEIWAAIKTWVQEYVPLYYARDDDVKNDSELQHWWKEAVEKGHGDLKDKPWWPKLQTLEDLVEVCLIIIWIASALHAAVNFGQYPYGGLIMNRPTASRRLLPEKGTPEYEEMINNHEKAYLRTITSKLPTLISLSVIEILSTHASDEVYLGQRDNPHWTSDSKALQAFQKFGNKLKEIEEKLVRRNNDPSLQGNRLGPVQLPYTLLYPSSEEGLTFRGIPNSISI
Method: Our group evaluated an in vitro study as reported previously. The tested hybrids were incubated at room temperature with sodium linoleate (100 µM) and 200 µL of enzyme solution (1/9 X 10^-4 w/v in saline). […] Different concentrations were used for the determination of IC50. A blank determination was used as a negative control.
Due to the limited work on sufficiently purified human ALOX-5 isoenzyme, most of the published research was performed on the soybean homolog. […] This study used the soybean isoenzyme LOX-1, which exerts maximal activity at pH 9.0 [72].

COX-2 inhibition (%) (ovine COX-2): 20%
Compound: COC(=O)CCCNC(=O)/C=C/c1cc(OC)ccc1OC [Compound 19b]
AAPH inhibition (%, at 100 µM) [1]: 70%

IC50 (ovine COX-2): 100 µM
Compound: O=C(O)/C=C/c1ccc(Br)cc1 [Compound 14]
AAPH inhibition (%, at 100 µM) [1]: 13%

IC50 (ovine COX-2): 55 µM
Compound: COC(=O)CCCNC(=O)/C=C/C=C/c1ccccc1 [Compound 23b]
AAPH inhibition (%, at 100 µM) [1]: 78%

IC50 [2]: 100 µM
Compound: COC(=O)CC[C@H](NC(=O)/C=C/c1cccs1)C(=O)OC [Compound 21c]
AAPH inhibition (%, at 100 µM) [1]: 41%

IC50 (ovine COX-2): 63 µM
Compound: CCOC(=O)CNC(=O)/C=C/c1ccc(Cl)cc1 [Compound 16a]

IC50 [2]: 80 µM
Compound: COC(=O)CC[C@H](NC(=O)/C=C/c1ccc(C(F)(F)F)cc1)C(=O)OC [Compound 13c]
AAPH inhibition (%, at 100 µM) [1]: 37%

IC50 [2]: 75 µM
Compound: COC(=O)CC[C@H](NC(=O)/C=C/c1ccc(Br)cc1)C(=O)OC [Compound 14c]
AAPH inhibition (%, at 100 µM) [1]: 38%

Compound: O=C(O)/C=C/c1cccc2ccccc12 [Compound 17]
AAPH inhibition (%, at 100 µM) [1]: 78%

LOX inhibition (%) [2]: 19%
Compound: COC(=O)CC[C@H](NC(=O)/C=C/c1ccc2c(c1)OCO2)C(=O)OC [Compound 20c]
AAPH inhibition (%, at 100 µM) [1]: 20%

COX-2 inhibition (%) (ovine COX-2): 4%
Compound: COC(=O)CCCNC(=O)/C=C/c1ccc2c(c1)OC(C)(C)O2 [Compound 29b]

Compound: COC(=O)CC[C@H](NC(=O)/C=C/c1ccc(OCc2ccc(Br)cc2)cc1)C(=O)OC [Compound 11c]
AAPH inhibition (%, at 100 µM) [1]: 92%

IC50 [2]: 63 µM
Compound: COC(=O)CC[C@H](NC(=O)/C=C/c1ccc(O)cc1)C(=O)OC [Compound 25c]
AAPH inhibition (%, at 100 µM) [1]: 78%

inhibition at 100 µM (ovine COX-2): 46%
Compound: O=C(O)/C=C/c1ccc(F)cc1 [Compound 27]

IC50 (ovine COX-2): 58 µM
Compound: CCOC(=O)CNC(=O)/C=C/c1ccc(OC(C)=O)cc1 [Compound 30a]

IC50 (ovine COX-2): 35 µM
Compound: CCOC(=O)CNC(=O)/C=C/C=C/c1ccccc1 [Compound 23a]
AAPH inhibition (%, at 100 µM) [1]: 85%

LOX inhibition (%) [2]: 12%
Compound: COC(=O)CCCNC(=O)/C=C/c1ccc(Br)cc1 [Compound 14b]
AAPH inhibition (%, at 100 µM) [1]: 11%

LOX inhibition (%) [2]: 10%
Compound: COC(=O)CC[C@H](NC(=O)/C=C/c1ccccc1)C(=O)OC [Compound 22c]
AAPH inhibition (%, at 100 µM) [1]: 39%

Compound: CCOC(=O)CNC(=O)/C=C/c1ccc(F)cc1 [Compound 27a]
AAPH inhibition (%, at 100 µM) [1]: 78%

IC50 (ovine COX-2): 75 µM
Compound: COC(=O)CCCNC(=O)/C=C/c1ccc(F)cc1 [Compound 27b]
AAPH inhibition (%, at 100 µM) [1]: 22%

IC50 (ovine COX-2): 6 µM
Compound: CCOC(=O)CNC(=O)/C=C/c1ccc(OCc2ccc(Br)cc2)cc1 [Compound 11a, Ethyl (E)-(3-(4-((4-bromobenzyl)oxy)phenyl)acryloyl)glycinate]
AAPH inhibition (%, at 100 µM) [1]: 38%

LOX inhibition (%) [2]: 40%
Compound: COC(=O)CCCNC(=O)/C=C/c1ccc(OC)c(OC)c1 [Compound 18b]
AAPH inhibition (%, at 100 µM) [1]: 75%

IC50 [2]: 75 µM
Compound: COC(=O)CC[C@H](NC(=O)/C=C/c1cccc(Br)c1)C(=O)OC [Compound 15c]

Compound: O=C(O)/C=C/c1ccc2c(c1)OCO2 [Compound 20]
inhibition at 100 µM [2]: 27%
AAPH inhibition (%, at 100 µM) [1]: 31%

Compound: COC(=O)CC[C@H](NC(=O)/C=C/c1ccc(Cl)cc1)C(=O)OC [Compound 16c]
AAPH inhibition (%, at 100 µM) [1]: 26%

Compound: CCOC(=O)CNC(=O)/C=C/c1ccc(O)cc1 [Compound 25a]
AAPH inhibition (%, at 100 µM) [1]: 39%

IC50 (ovine COX-2): 50 µM
Compound: COC(=O)CCCNC(=O)/C=C/c1ccc(OC(C)=O)cc1 [Compound 30b]
AAPH inhibition (%, at 100 µM) [1]: 9%

IC50 (ovine COX-2): 77.5 µM
Compound: CCOC(=O)CNC(=O)/C=C/c1ccc(C#N)cc1 [Compound 26a]
AAPH inhibition (%, at 100 µM) [1]: 37%

inhibition at 100 µM (ovine COX-2): 6%
Compound: O=C(O)/C=C/c1ccc(O)c(O)c1 [Compound 28, trans-caffeic acid]
AAPH inhibition (%, at 100 µM) [1]: 80%

IC50 (ovine COX-2): 65.5 µM
Compound: CCOC(=O)CNC(=O)/C=C/c1ccc(Br)cc1 [Compound 14a]
AAPH inhibition (%, at 100 µM) [1]: 69%

inhibition at 100 µM [2]: 46%
Compound: CC1(C)Oc2ccc(/C=C/C(=O)O)cc2O1 [Compound 29, (E)-3-(2,2-dimethylbenzo[d][1, 3]dioxol-5-yl)acrylic acid]
AAPH inhibition (%, at 100 µM) [1]: 56%

IC50 [2]: 60 µM
Compound: COC(=O)CC[C@H](NC(=O)/C=C/c1cccc(Oc2ccccc2)c1)C(=O)OC [Compound 12c]
AAPH inhibition (%, at 100 µM) [1]: 65%

LOX inhibition (%) [2]: 10%
Compound: COC(=O)CC[C@H](NC(=O)/C=C/c1ccc(C#N)cc1)C(=O)OC [Compound 26c]

Compound: CC(=O)Oc1ccc(/C=C/C(=O)O)cc1 [Compound 30, (E)-3-(4-acetoxyphenyl) acrylic acid]
inhibition at 100 µM [2]: 23%
AAPH inhibition (%, at 100 µM) [1]: 33%

LOX inhibition (%) [2]: 23%
Compound: CCOC(=O)CNC(=O)/C=C/c1cccc2ccccc12 [Compound 17a]

inhibition at 100 µM (ovine COX-2): 14%
Compound: COc1cc(/C=C/C(=O)O)ccc1O [Compound 24]
AAPH inhibition (%, at 100 µM) [1]: 86%

LOX inhibition (%) [2]: 30%
Compound: COC(=O)CCCNC(=O)/C=C/c1ccc(OCc2ccc(Br)cc2)cc1 [Compound 11b]
AAPH inhibition (%, at 100 µM) [1]: 19%

COX-2 inhibition (%) (ovine COX-2): 43%
Compound: COC(=O)CCCNC(=O)/C=C/c1cccc(Br)c1 [Compound 15b]
AAPH inhibition (%, at 100 µM) [1]: 27%

Compound: COC(=O)CCCNC(=O)/C=C/c1ccc2c(c1)OCO2 [Compound 20b]
IC50 [2]: 67.5 µM
AAPH inhibition (%, at 100 µM) [1]: 9%

LOX inhibition (%) [2]: 31%
Compound: CCOC(=O)CNC(=O)/C=C/c1ccc(C(F)(F)F)cc1 [Compound 13a]
AAPH inhibition (%, at 100 µM) [1]: 8%

Compound: Cc1c(C)c2c(c(C)c1O)CCC(C)(C(=O)O)O2 (stereo not shown) [Trolox, reference compound]
AAPH inhibition (%, at 100 µM) [1]: 92%

IC50 (ovine COX-2): 92.5 µM
Compound: COC(=O)CCCNC(=O)/C=C/c1ccc(Cl)cc1 [Compound 16b]
AAPH inhibition (%, at 100 µM) [1]: 8%

IC50 [2]: 100 µM
Compound: COC(=O)CCCNC(=O)/C=C/c1ccc(O)c(OC)c1 [Compound 24b]
AAPH inhibition (%, at 100 µM) [1]: 34%

IC50 (ovine COX-2): 61 µM
Compound: COC(=O)CCCNC(=O)C=Cc1ccccc1 [Compound 22b]
AAPH inhibition (%, at 100 µM) [1]: 24%

IC50 (ovine COX-2): 32.5 µM
Compound: COC(=O)CCCNC(=O)/C=C/c1ccc(C#N)cc1 [Compound 26b]
AAPH inhibition (%, at 100 µM) [1]: 3%

inhibition at 100 µM (ovine COX-2): 46%
Compound: O=C(O)/C=C/c1ccc(Cl)cc1 [Compound 16]
